Measurements as given in ChEMBL document CHEMBL3826923, “Synthesis and biological activity of novel ester derivatives of N(3)-(4-metoxyfumaroyl)-(S)-2,3-diaminopropanoic acid containing amide and keto function as inhibitors of glucosamine-6-phosphate synthase” (Bioorg Med Chem Lett, 2016).

Columns and labels:
[1] = tested on: Escherichia coli; test: Antimicrobial activity against Escherichia coli PCM 2560 after 24 hrs by serial two fold dilution method; format: functional; conditions: PCM 2560, 24 h
[2] = tested on: Nakaseomyces glabratus; test: Antimicrobial activity against Candida glabrata DSM 11226 after 48 hrs by serial two fold dilution method; format: functional; conditions: DSM 11226, 48 h
[3] = tested on: Candida albicans; test: Antimicrobial activity against Candida albicans ATCC 10231 after 48 hrs by serial two fold dilution method; format: functional; conditions: ATCC 10231, 48 h
[4] = Inhibition of Candida albicans glucosamine-6-phosphate synthase expressed in Escherichia coli using D-fructose-6-phosphate as substrate after 30 mins
[5] = tested on: Staphylococcus aureus; test: Antimicrobial activity against Staphylococcus aureus ATCC 29213 after 24 hrs by serial two fold dilution method; format: functional; conditions: ATCC 29213, 24 h

SMILES	MIC80 [1] [µg/mL]	MIC80 [2] [µg/mL]	MIC80 [3] [µg/mL]	IC50 [4] [µM]	MIC80 [5] [µg/mL]
COC(=O)/C=C/C(=O)NC[C@H](N)C(=O)OCC(C)=O.Cl	> 1020	512	0.25	5.08	> 1020
COC(=O)/C=C/C(=O)NC[C@H](N)C(=O)OCC(=O)N(C)C.Cl	> 1020	> 1020	2	66.6	512
CNC(=O)COC(=O)[C@@H](N)CNC(=O)/C=C/C(=O)OC.Cl	> 1020	> 1020	1	27	1020
COC(=O)/C=C/C(=O)NC[C@H](N)C(=O)OCC(=O)C(C)(C)C.Cl	> 1020	512	0.5	5.17	> 1020
COC(=O)/C=C/C(=O)NC[C@H](N)C(=O)O	> 1020	> 1020	> 1020	4.03	> 1020
COC(=O)/C=C/C(=O)NC[C@H](N)C(=O)O[C@@H](C)C(=O)N(C)C.Cl	> 1020	> 1020	256	> 5000	> 1020
CNC(=O)[C@H](C)OC(=O)[C@@H](N)CNC(=O)/C=C/C(=O)OC.Cl	> 1020	> 1020	16	199	> 1020
COC(=O)/C=C/C(=O)NC[C@H](N)C(=O)OCC(N)=O.Cl	> 1020	> 1020	128	202	> 1020
COC(=O)/C=C/C(=O)NC[C@H](N)C(=O)O[C@@H](C)C(N)=O.Cl	> 1020	> 1020	8	82.1	> 1020
COC(=O)/C=C/C(=O)NC[C@H](N)C(=O)OC(C)C(C)=O.Cl (stereo not given in full)	> 1020	512	0.5	4.91	> 1020
